# Measurements: patent publication US20260125359A1, “HETEROARYL COMPOUNDS AS MULTI-TARGET PROTEIN KINASE INHIBITORS” (FUJIAN HAIXI PHARMACEUTICALS CO., LTD., priority 2023, published 2026)
# Tested on: M-NFS-60 cells
# Assay: M-NFS-60 cell in vitro assay (CCK, 48 h, M-CSF factor medium)
# Type: cell-based
# Details: M-NFS-60 cells; read-out: M-NFS-60cellassay IC50
# Protocol: To determine the inhibitory activity of compounds on M-NFS-60 cells.
# • M-NFS-60 cell line (ATCC, Cat. No.: CRL-1838) • RPMI-1640 medium (Gibco, domestic subpackage, Cat. No.: C11875500BT) • Recombinant Mouse CSF1/M-CSF (Sino Biological Inc., Cat. No.: 51112-MNAH) • PAN/Serum (BioTECH, Cat. No.: P30-2602) • Trypsin/0.05% Trypsin-EDTA (Gibco, Cat. No.: 25300-062) • 0.4% Trypan Blue (Sigma, Cat. No.: T8154-20 ml) • Penicillin-Streptomycin (Hyclone, Cat. No.: SV30010) • DMSO (Solarbio, Cat. No.: D8371) • PBS (Solarbio, Cat. No.: P1020) • CCK (AbMole BioScience, Cat. No.: M4839-500Tests)
# • 1) M-CSF factor stock solution: take 10 μg of powdered m-CSF factor, add 0.4 ml of saline, formulate 25 ug/ml and store at −80° C. • 2) M-CSF factor (25 ng/ml) medium: • 1640 (Gibco)+10% PAN+100×Penicillin-Streptomycin+100×M-CSF stock solution • 3) Complete medium: • 1640 (Gibco)+10% PAN+100×Penicillin-Streptomycin • 4) Compound preparation: 2-3 mg of the compound was added to DMSO to formulate a 30 mM stock solution, −80° C. refrigerator storage
# • 1) Cell resuscitation: the frozen cells in the cryovial were thawed rapidly by shaking in a 37° C. water bath, then 4 mL of medium was added. After mixing evenly, they were centrifuged at 125×g for 5 min, and the supernatant was discarded. The cells were resuspended and transferred to the culture flasks, and were cultured in a 5% CO2 fully saturated humidity incubator. • 2) Cell passaging: M-NFS-60 cells are semi-suspension cells, which were collected directly in a 15 mL centrifuge tube, centrifuged at 125×g for 5 min. and the supernatant was discarded. The cells were resuspended and passaged into new culture flasks at a ratio of 1:5 to 1:10. • 3) After the newly resuscitated cells were passaged 1-2 times for cell stabilization, compound inhibition assays were started when the cells were in the logarithmic growth phase. • (a) Cell collection and counting: the same as the cell passaging step, centrifuge in two tubes, one tube with M-CSF factor medium to resuspend the cells, the other tube with complete medium to resuspend the cells. Take 10 μL of cell suspension in each tube, and count the cells by Tepan blue staining. • (b) Dilute the cell solution according to the concentration of inoculated cells respectively, the concentration of M-NFS-60 cells inoculated with factor was 5.56×10^4 cells/mL, and the concentration of inoculated without factor was 5×10^4 cells/mL. • (c) Seed plate: 384 well plate inoculated with M-NFS-60 cells, 36 uL/well, triplicate wells, the number of inoculated cells was equivalent to 2000 cells/well, set with blank control, factor free negative control, normal control, DMSO control and experimental wells. The cells were placed in a 5% CO2 fully saturated humidity incubator for 4 h. • (d) Sampling compounds: 96 well plates were used for compound preparation. The compound solution prepared in advance was diluted to corresponding gradient concentration with DMSO. An appropriate amount of the diluted solution in the previous step was added to an equal volume of factor containing medium. The 96 well plates were centrifuged at 1000 rpm for 5 min, which played the role of defoaming and spinning down droplets and condensation. Remove the 384 well plate from the incubator, add the diluted compound solution into each well sequentially, 4 μL/well; DMSO wells and normal wells were added with corresponding factor containing medium, 4 μL/well. Then it was put into CO2 incubator for 48 h. • (e) After incubation for 48 h, CCK was added to each well, 4 uL, and the plates were placed in the incubator for another 2 h, and then the OD (optical density) value at 450 nm was measured by microplate reader.
# The IC50 values for each test compound were fitted using professional graphing and analysis software.
row,SMILES,IC50 [nM]
1,COc1ccc(F)c(NC(=O)c2cccc3c2CC[C@@H]3Oc2cnc3cnn(C)c3c2)c1 [Compound 76ag],50 to 200
2,"COc1cccc(C(=O)Nc2cccc3c2CCC3Oc2cc(Br)cnc2N)c1 (stereo not drawn) [Compound 1f, N-(1-((2-amino-5-bromopyridin-3-yl)oxy)-2,3-dihydro-1H-inden-4-yl)-3-methoxybenzamide]",50 to 200
3,CC(C)(CO)c1cc(Nc2cccc3c2CC[C@@H]3Nc2cncc(Cl)c2)no1 [Compound 42c],< 50
4,"Cc1cccc(NC(=O)c2cccc3c2CC[C@@H]3N(C)c2cnc3cnn(C)c3c2)c1F [Compound 79, (S)—N-(2-fluoro-3-methylphenyl)-1-(methyl (1-methyl-1H-pyrazolo[4,3-b]pyridin-6-yl)amino)-2,3-dihydro-1H-indene-4-carboxamide]",< 50
5,"CC(C)c1csc(Nc2cccc3c2CC[C@@H]3Nc2cncc(-c3cnn(C)c3)n2)n1 [Compound 35, (S)—N^4-(4-isopropylthiazol-2-yl)-N^1-(6-(1-methyl-1H-pyrazol-4-yl)pyrazin-2-yl)-2,3-dihydro-1H-indene-1,4-diamine]",50 to 200
6,Cn1cc2ncc(N[C@H]3CCc4c(Nc5noc(C6(C)CCC6)n5)cccc43)cc2n1 [Compound 93n],< 50
7,Cn1cc(-c2cncc(N[C@H]3CCc4c(CNc5cccc(C6CC6)c5)cccc43)c2)cn1 [Compound 59b],200 to 500
8,Cc1cccc(C(=O)Nc2cccc3c2CC[C@H]3Nc2cncc(-c3cnn(C)c3)n2)c1 [Compound 25b],> 500
9,Cc1ccc(F)c(NC(=O)c2cccc3c2CC[C@@H]3Oc2cnc3cnn(C)c3c2)c1 [Compound 76ah],< 50
10,Cc1cccc(C(=O)Nc2ccc(F)c3c2CCC3Nc2cncc(-c3cnn(C)c3)c2)c1 (stereo not drawn) [Compound 44b],< 50
11,"Cn1cc(-c2cncc(N[C@H]3CCc4c(NC(=O)N5CCC(C)(C)C5=O)cccc43)n2)cn1 [Compound 64, (S)-3,3-dimethyl-N-(1-((6-(1-methyl-1H-pyrazol-4-yl)pyrazin-2-yl)amino)-2,3-dihydro-1H-inden-4-yl)-2-oxopyrrolidine-1-carboxamide]",200 to 500
12,CC(C)c1cc(Nc2cccc3c2CC[C@@H]3Nc2cncc(Cl)c2)no1 [Compound 42b],50 to 200
13,"Cc1cccc(NC(=O)c2ccc(F)c3c2CC[C@@H]3Nc2cnc3cn(C)nc3c2)c1F [Compound 84, (S)-7-fluoro-N-(2-fluoro-3-methylphenyl)-1-((2-methyl-2H-pyrazolo[4,3-b]pyridin-6-yl)amino)-2,3-dihydro-1H-indene-4-carboxamide]",< 50
14,"COc1cc(C(=O)Nc2cccc3c2C(=O)CC3Nc2cncc(-c3cnn(C)c3)c2)ccc1F (stereo not drawn) [Compound 69, 4-fluoro-3-methoxy-N-(1-((5-(1-methyl-1H-pyrazol-4-yl)pyridin-3-yl)amino)-3-oxo-2,3-dihydro-1H-inden-4-yl)benzamide]",> 500
15,Cn1cc(-c2cncc(N[C@H]3CCc4c(NC(=O)c5cccc(CN6CCCCC6)c5)cccc43)c2)cn1 [Compound 28a],> 500
16,"Cc1cccc(C(=O)Nc2ccc(F)c3c2CC[C@@H]3Nc2cnc3cn(C)nc3c2)c1F [Compound 83, (S)-2-fluoro-N-(7-fluoro-1-((2-methyl-2H-pyrazolo[4,3-b]pyridin-6-yl)amino)-2,3-dihydro-1H-inden-4-yl)-3-methylbenzamide]",< 50
17,Cn1ncc2ncc(N[C@H]3CCc4c(Nc5cc(C(C)(C)C)on5)cccc43)cc21 [Compound 91a],< 50
18,Cn1cc(-c2cncc(N[C@H]3CCc4c(C(=O)N5CCCCC5)cccc43)n2)cn1 [Compound 27b],> 500
19,"Cn1cc(-c2cncc(N[C@H]3CCc4c(NC5(c6ccccc6)COC5)cccc43)c2)cn1 [Compound 63, (S)—N^1-(5-(1-methyl-1H-pyrazol-4-yl)pyridin-3-yl)-N^4-(3-phenyloxetan-3-yl)-2,3-dihydro-1H-indene-1,4-diamine]",> 500
20,Cn1cc2ncc(O[C@H]3CCc4c(C(=O)Nc5ccc(F)c(Cl)c5)cccc43)cc2n1 [Compound 76as],< 50
21,Cn1cc(-c2cncc(N[C@H]3CCc4c(Nc5cnn(C(C)(C)C)c5)cccc43)n2)cn1 [Compound 39a],> 500

row,SMILES,IC50 [nM]
1,Cn1ncc2ncc(O[C@H]3CCc4c(C(=O)Nc5cccc(C6CC6)c5)cccc43)cc21 [Compound 76ab],< 50
2,COc1cccc(C(=O)Nc2cccc3c2OCCC3Oc2cc(Br)cnc2N)c1 (stereo not drawn) [Compound 2b],> 500
3,Cn1cc2ncc(N[C@H]3CCc4c(Nc5noc(C6(CO)CC6)n5)cccc43)cc2n1 [Compound 93e],50 to 200
4,Cn1ncc2ncc(O[C@H]3CCc4c(C(=O)Nc5ccc(F)c(Cl)c5)cccc43)cc21 [Compound 76an],< 50
5,Cn1ncc2ncc(N[C@H]3CCc4c(Nc5nc(C(C)(C)C)co5)cccc43)cc21 [Compound 91g],50 to 200
6,"CN1CCc2ccc(NC(=O)c3cccc4c3CC[C@@H]4Oc3cncc(-c4cnn(C)c4)c3)cc2C1 [Compound 18, (S)—N-(2-methyl-1,2,3,4-tetrahydroisoquinolin-7-yl)-1-((5-(1-methyl-1H-pyrazol-4-yl)pyridin-3-yl)oxy)-2,3-dihydro-1H-indene-4-carboxamide]",50 to 200
7,Cn1cc(-c2cncc(N[C@H]3CCc4c(Nc5nc(C(C)(C)C)no5)cccc43)c2)cn1 [Compound 42k],200 to 500
8,CN1CC(c2cccc(NC(=O)c3cccc4c3CC[C@@H]4Oc3cncc(-c4cnn(C)c4)c3)c2)C1 [Compound 19o],50 to 200
9,CC(C)c1cc(Nc2cccc3c2CC[C@@H]3Nc2cnc3cnn(C)c3c2)no1 [Compound 91e],< 50
10,"Cn1cc(-c2cncc(NC3COc4c(NC(=O)c5ccc(C(F)(F)F)cc5)cccc43)c2)cn1 (stereo not drawn) [Compound 47, N-(3-((5-(1-methyl-1H-pyrazol-4-yl)pyridin-3-yl)amino)-2,3-dihydrobenzofuran-7-yl)-4-(trifluoromethyl)benzamide]",50 to 200
11,Cc1cc(NC(=O)c2cccc3c2CC[C@@H]3Oc2cnc3cn(C)nc3c2)ccc1F [Compound 76ar],< 50
12,Cn1cc(-c2cncc(O[C@H]3CCc4c(C(=O)Nc5ccc6c(c5)OCCO6)cccc43)c2)cn1 [Compound 19n],< 50
13,Cn1cc(-c2cncc(N[C@H]3CCc4c3ccc(F)c4C(=O)Nc3cccc(C4CC4)c3)c2)cn1 [Compound 51a],< 50
14,Cn1cc2ncc(N[C@H]3CCc4c(Nc5noc(C6(C(F)(F)F)CCCC6)n5)cccc43)cc2n1 [Compound 93l],< 50
15,CC(C)(C)c1cc(Nc2cccc3c2CC[C@@H]3Nc2cncc(Cl)c2)no1 [Compound 42a],50 to 200
16,Cn1cc(-c2cncc(N[C@H]3CCc4c(C(=O)Nc5cccc(C6CC6)c5)cc(F)cc43)c2)cn1 [Compound 51b],< 50
17,Cc1cc(NC(=O)c2cccc3c2CC[C@@H]3N(C)c2cnc3cn(C)nc3c2)ccc1F [Compound 80s],< 50
18,Cn1cc(-c2cncc(N[C@H]3CCc4c(Nc5cc(C(C)(C)C(F)(F)F)on5)cccc43)c2)cn1 [Compound 42p],< 50
19,"Cn1cc(-c2cncc(N[C@H]3CCc4c(C(=O)OC5CCCCC5)cccc43)n2)cn1 [Compound 62, cyclohexyl(S)-1-((6-(1-methyl-1H-pyrazol-4-yl)pyrazin-2-yl)amino)-2,3-dihydro-1H-indene-4-carboxylate]",> 500
20,CN(C)Cc1ccc(NC(=O)c2cccc3c2CC[C@@H]3Oc2cnc3cnn(C)c3c2)cc1 [Compound 76aa],50 to 200
21,Cn1cc(-c2cncc(N[C@H]3CCc4c(C(=O)Nc5cccc(C(F)(F)F)c5)cccc43)c2)cn1 [Compound 14ax],< 50
